According to patent publication US20080187492A1, “Drosophila Models For Diseases Affecting Learning and Memory” (priority 2004, published 2008):

Experiments:
Type in all cases: in vivo, Drosophila melanogaster
[1] = tested on: FS flies lacking dfmr1 activity; assay: Short-term memory (60 mins) with mated female targets, FS flies
Experimental: (§1) Effects of drug treatment on short-term memory (60 mins) in flies lacking dfmr1 activity with mated female targets. Short-term (60 min.) memory was measured in Rescue and FS flies that were either fed control food or underwent various drug treatments as described below. Short-term memory was measured by placing a trained male in a holding chamber for 60 minutes (after being trained for one hour with a previously mated female), then subsequently placing him in a testing chamber with a mated female target for a ten-minute courtship interval (C.I.). This C.I. was compared to the C.I. obtained for naïve courtship of a previously mated female, i.e., C.I. during the first 10 minutes of the training session with a previously mated female. Additionally, for reference the C.I. during the last 10 minutes of the training period was also determined. Numbers of flies are indicated above each bar for all groups. The levels of significance are indicated as follows; *=p<0.05; **=p<0.005; ***=p<0.0001.
(§2) Restoration of short-term memory with mGluR antagonists. To establish that the failure to observe memory was not due to a problem with recognizing or processing the appropriate cues from the virgin female target, we used a modified version of the conditioned courtship paradigm where the male is paired with a mated female target subsequent to training (Kane et al., 1997; Joiner and Griffith, 1997; Joiner and Griffith, 1999; Kamashev et al., 1999). Again, with pharmacologic treatment it is necessary to utilize more then one compound to confirm the specificity of the target, so in this case we used four mGluR antagonists. […] It is also important to note that the robust deficit in synaptic plasticity in FS flies, with regard to memory, is a critical extension of the previous models of Fragile X syndrome in model organisms, since this is one of the most prominent aspects of the human disorder. Furthermore, we have shown that antagonism of the mGluRs can restore synaptic plasticity in the Drosophila model of Fragile X syndrome.

Rescue flies = assay: Short-term memory (60 mins) with mated female targets, Rescue flies
Experimental: as §1, §2

[2] = tested on: FS (dFMR1-3+frame shifted rescue fragment) flies; assay: Conditioned courtship: short-term memory at 60 minutes, virgin female target, FS flies
Experimental: (§3) Short-term memory. The model was further extended to encompass short-term memory at 60 minutes after training. After the one hour training session with a previously mated female, the female is removed and the male is placed in a holding chamber for 60 minutes, then subsequently placed in a testing chamber with a virgin female target to assess short-term memory (FIG. 4C). […] CT-CT FS flies court just as vigorously at 60 minutes after training as naive CT-CT FS flies. […] The FS groups that were treated with MPEP in development alone, adulthood alone or in both development and adulthood display experience dependent reduction of courtship activity at 60 minutes after training when compared to group matched naives M-M FS, p<0.0001, CT-M FS, p<0.0001 and M-CT FS, p<0.0001. […] Additionally, flies were tested for ability to discriminate between virgin and previously mated females (FIG. 4D).
(§4) In order to examine short-term memory at 60 minutes after training, after the one hour training session with a previously mated female, the female is removed and the male is placed in a holding chamber for 60 minutes, then subsequently placed in a testing chamber with a virgin female (FIG. 9B). […] CT-CT FS flies court just as vigorously at 60 minutes after training as naive CT-CT FS flies. […] The FS groups that were treated with MPEP in development alone, adulthood alone or in both development and adulthood display experience dependent reduction of courtship activity at 60 minutes after training when compared to group matched naives M-M FS.

[3] = tested on: FS (dFMR1-3+frame shifted rescue fragment) flies; assay: Naive courtship behavior (courtship index toward virgin female), FS flies
Source text: (§5) Learning and memory (cognitive abilities) can be examined in Drosophila by utilizing several available learning and memory paradigms. The most popular is a classical conditioning paradigm in which the flies learn to associate electric shocks with olfactory cues (Dudia et al, 1976; Davis, 1993; Tully, 1994). An alternative paradigm to study learning and memory in Drosophila is called conditioned courtship, wherein a male fly learns to modify his courtship behavior after experience with an unreceptive female; it is a multi-sensory paradigm involving associations from more then one sensory input (Siegel and Hall, 1979; for review see Hall, 1994). It is a more complex associative learning paradigm and was utilized to assay learning and memory in this article to elucidate the role of dFMR1 in learning and memory (Tompkins et al, 1980; Tompkins et al, 1982; Tompkins et al, 1983; Tompkins et al, 1984; Ackerman and Siegel, 1986). Courting male flies perform a characteristic sequence of behaviors: orienting toward and following the female, tapping her with his forelegs, vibrating one or both wings, licking her genitalia, and attempting copulation (Sturtevant, 1915; Bastock and Manning, 1955; Bastock, 1956). These behaviors are repeated with some variation until successful copulation occurs. Virgin females will generally respond by mating; however, recently mated females will be unreceptive and will not allow copulation to occur (Spieth, 1974), they display different behaviors (Bastock and Manning, 1955; Connolly and Cook, 1973) and have an altered, although somewhat overlapping, pheromonal profile (Cobb and Ferveur, 1996). The naive male will find a previously mated female to have a pheromonal repertoire that is less provocative then that of a virgin female target. A naive male paired with a mated female will initially court her, but his courtship activity soon decreases; after 1 hour of experience with the mated female, his courtship when subsequently paired with a virgin female remains depressed for 2-3 hours (Siegel and Hall, 1979). This effect is not a general suppression of all courtship activity since a male's tendency to court an immature male is not suppressed (Gailey et al, 1984). […] These behaviors are quantified as a courtship index (CI) which is defined as the percentage of time a male fly spends performing any of the six courtship steps toward a target female in a ten minute test period. A decrease in CI after training with a previously mated female is indicative of behavioral plasticity in the form of learning or memory.
Since we use female targets that are not etherized (therefore they are freely moving), and the w118 and dfmr1-3 flies may have slightly impaired visual acuity due to lack of eye pigmentation, and since visual inputs affect courtship behavior, all subsequent experiments were done utilizing only the genotypes Rescue: dfmr1-3+wild type rescue fragment, and FS: dfmr1-3+frame shifted rescue fragment. Both of these genotypes have more pigmentation and similar levels of eye pigmentation to each other. For FIGS. 4 and 5, a high concentration of MPEP (1,000 μg/ml) was used. For the remainder of the experiments the food was either control (CT) or exactly the same control food containing the appropriate concentration of MPEP (M). The position of the CT and the M are indicative of the point at which the group was on the particular food. The first letter indicates the food type that the larvae grew up on, and the second letter denotes the food type that the adult flies were placed on within four hours of eclosion, […] fresh food.
Naive males were placed in the training chamber for one hour with no female, and then placed with a virgin target female for a ten-minute interval. The naive courtship behavior was reduced by high MPEP concentration in Rescue (p<0.0001) and FS (p<0.0005) lines, and it was depressed to similar levels by high MPEP treatment in the Rescue and FS groups (FIG. 2A). […]

[4] = tested on: Rescue (dFMR1-3+wild type rescue fragment) flies; assay: Naive courtship behavior (courtship index toward virgin female), Rescue flies; conditions: for naive courtship: 5 day old
Source text: as §5
Since we use female targets that are not etherized (therefore they are freely moving), and the w118 and dfmr1-3 flies may have slightly impaired visual acuity due to lack of eye pigmentation, and since visual inputs affect courtship behavior, all subsequent experiments were done utilizing only the genotypes Rescue: dfmr1-3+wild type rescue fragment, and FS: dfmr1-3+frame shifted rescue fragment. Both of these genotypes have more pigmentation and similar levels of eye pigmentation to each other. For FIGS. 4 and 5, a high concentration of MPEP (1,000 μg/ml) was used. For the remainder of the experiments the food was either control (CT) or exactly the same control food containing the appropriate concentration of MPEP (M). The position of the CT and the M are indicative of the point at which the group was on the particular food. The first letter indicates the food type that the larvae grew up on, and the second letter denotes the food type that the adult flies were placed on within four hours of eclosion, and for the four following days, until the day before testing when they were placed on fresh food.
In order to determine if MPEP can get into the Drosophila central nervous system (CNS) through feeding behavior, we mixed MPEP into the food at a concentration of 1,000 μg/ml ([…]). Males were raised on CT food and then placed on either CT or M food. […]

[5] = tested on: Rescue (dFMR1-3+wild type rescue fragment) flies; assay: Conditioned courtship: short-term memory at 60 minutes, virgin female target, Rescue flies; conditions: 5 day old; MPEP (20 μg/ml), NaCl (5 and 50 mM), LY341495 (400 nM)
Experimental: as §3, §4

[6] = 86 μM MPEP, 400 nM LY341495, 573 μM MPPG, 348 μM MTPG
[7] = 5 day old, 8.6 mM MPEP, 400 nM LY341495

Structure (SMILES) | short-term memory, mated female target [1, 6] | memory at 60 minutes post training, mated female target [1, 7] | short-term memory, mated female target (Rescue flies; [6]) | memory at 60 minutes post training, mated female target (Rescue flies; [7]) | short-term memory ([2]; 20-day-old, concentration not given) | naive courtship activity ([3]; 5 day old adults, 573 mM MPPG (p<0.0001) or 348 μM MTPG (p<0.005)) | naive courtship activity ([4]; 5 day old adults, 573 mM MPPG or 348 μM MTPG, p<0.0001 for both) | short term memory ([2]; 5 day old, NaCl (5 and 50 mM)) | short term memory [5] | naive courtship ([3]; 5 day old, NaCl at 5 or 50 mM in food) | naive courtship ([4]; LiCl 5 mM, NaCl 5 mM in food) | naive courtship ([4]; LiCl 50 mM, NaCl 50 mM in food)
CC(N)(C(=O)O)c1ccc(P(=O)(O)O)cc1 (racemic) [MPPG, (RS)-alpha-methyl-4-phosphoonophenylglycine] | demonstrated restoration of short-term memory | demonstrate memory at 60 minutes post training | demonstrated intact short-term memory | demonstrate memory at 60 minutes post training | rescue short-term memory | significant increase in courtship activity | significant decrease in courtship activity |  |  |  |  | 
[Cl-].[Na+] [NaCl] |  |  |  |  |  |  |  | had no effect | did not affect short term memory | did not restore naive courtship | did not suppress naive courtship | suppressed naive courtship
